The values below are quoted from earlier work in patent publication US20090012101A1, “Mucarinic Agonists and Methods of Use Thereof” (UNIVERSITY OF TOLEDO, priority 2005, published 2009).

Data set [1] has as its target T1, M4 receptors (Homo sapiens, UniProt P08173).
T1 sequence (P08173 1-479): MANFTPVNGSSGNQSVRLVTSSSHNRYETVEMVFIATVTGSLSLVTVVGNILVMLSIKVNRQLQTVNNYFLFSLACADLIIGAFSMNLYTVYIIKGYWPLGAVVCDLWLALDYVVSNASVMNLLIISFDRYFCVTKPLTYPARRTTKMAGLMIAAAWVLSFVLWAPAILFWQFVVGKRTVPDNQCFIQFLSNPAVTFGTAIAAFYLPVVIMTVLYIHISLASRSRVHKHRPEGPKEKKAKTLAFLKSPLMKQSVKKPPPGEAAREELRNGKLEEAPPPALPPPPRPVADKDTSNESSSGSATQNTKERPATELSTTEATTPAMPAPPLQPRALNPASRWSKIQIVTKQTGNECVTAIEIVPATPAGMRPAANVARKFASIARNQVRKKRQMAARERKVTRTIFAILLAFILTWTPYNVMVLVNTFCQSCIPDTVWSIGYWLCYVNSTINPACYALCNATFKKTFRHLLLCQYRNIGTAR

The target in data set [2] is T2, M2 receptors (Homo sapiens, UniProt P08172).
T2 sequence (P08172 1-466): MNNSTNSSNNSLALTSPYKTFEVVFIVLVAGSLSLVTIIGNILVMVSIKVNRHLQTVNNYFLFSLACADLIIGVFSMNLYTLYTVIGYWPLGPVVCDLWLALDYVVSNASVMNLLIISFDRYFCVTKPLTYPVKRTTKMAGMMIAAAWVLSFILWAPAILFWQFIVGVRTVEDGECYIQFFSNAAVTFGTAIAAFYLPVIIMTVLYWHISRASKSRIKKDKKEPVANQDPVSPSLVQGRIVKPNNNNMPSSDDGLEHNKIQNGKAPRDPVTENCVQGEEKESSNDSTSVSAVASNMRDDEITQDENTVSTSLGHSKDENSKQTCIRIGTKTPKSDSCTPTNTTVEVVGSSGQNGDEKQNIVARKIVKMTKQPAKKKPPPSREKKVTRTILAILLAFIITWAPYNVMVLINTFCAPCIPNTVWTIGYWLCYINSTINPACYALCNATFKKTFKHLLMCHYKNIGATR

For data set [3] the following is noted: preclinical studies.

Regarding `CCCCSc1nsnc1[C@H]1CN2CCC[C@H]1C2` [BuTAC, (5R,6R)-6-(3-butylthio-1,2,5-thiadiazol-4-yl)-1-azabicyclo[3.2.1]octane], the “agonist activity at M4 receptors” value in data set [1] is “partial agonist activity”. For the same compound, in data set [2], the “agonist activity at M2 receptors” value is recorded as “partial agonist activity”. For the same compound, the antipsychotic activity result in data set [3] is “strong antipsychotic activity”.
On to `CCCCCCOc1nsnc1C1=CCCN(C)C1` [xanomeline], for which the “unwanted side effects associated with activation of M3 receptors” value was “salivation, diarrhea and profuse sweating”. The “effect on psychiatric symptoms such as hallucinations” value (phase II clinical trials, Alzheimer's patients) is reported as “significantly improved psychiatric symptoms”.
